According to the OPERA property sets (Mansouri et al. 2018):
Values after ≈ are worked out from the molar mass of the structure shown.

Conditions: not given

**Q.** With `CCOC(=O)C(=Cc1ccc(OC)c(OC)c1)NC=O` as the compound, how does the logP read?
**A.** 1.97

**Q.** With `CCOC(=O)C(=Cc1ccoc1)NC=O` as the compound, how does the logP read?
**A.** 2.08

**Q.** Which logP does the source give for `CCOC(=O)C(=Cc1ccccc1)NC=O` here?
**A.** 2.48

**Q.** With `CCOC(=O)C(=Cc1ccc([N+](=O)[O-])cc1)NC=O` as the compound, how does the logP read?
**A.** 2.05

**Q.** For `CCOC(=O)C(=Cc1cccc([N+](=O)[O-])c1)NC=O`, which logP is on record?
**A.** 2.05

**Q.** For `CCOC(=O)C(=Cc1ccc(Cl)cc1)NC=O`, which logP is on record?
**A.** 2.65

**Q.** For `CCOC(=O)C(=Cc1cccc(Cl)c1)NC=O`, which logP is on record?
**A.** 2.51

**Q.** With `CCOC(=O)C(=Cc1ccc2c(c1)OCO2)NC=O` as the compound, how does the logP read?
**A.** 1.66

**Q.** For `CCOC(=O)C(=Cc1ccc(OC)cc1)NC=O`, which logP is on record?
**A.** 2.22

**Q.** For `CCOC(=O)C(=Cc1ccccc1Cl)NC=O`, which logP is on record?
**A.** 2.41

Same assay, conditions: 25 °C

**Q.** For `CCOC(=O)C(=Cc1ccoc1)NC=O`, which solubility is on record?
**A.** 1790 µM (≈ 374 µg/mL)
